Experiments:
[1] = system: Mycosphaerella arachidis (Cercospora arachidicola); test: Mycosphaerella arachidis (Cercospora arachidicola) / liquid culture (early leaf spot); assay type: cell-based; conditions: PDB potato dextrose broth, 24° C., 4-5 days after application, compared to untreated checks, read-out: disease control (inhibition of growth, photometric)
Method: (§1) Mycosphaerella arachidis (Cercospora arachidicola)/Liquid Culture (Early Leaf Spot) Conidia of the fungus from cryogenic storage are directly mixed into nutrient broth (PDB potato dextrose broth). After placing a (DMSO) solution of test compound into a microtiter plate (96-well format), the nutrient broth containing the fungal spores is added. The test plates are incubated at 24° C. and the inhibition of growth is determined photometrically 4-5 days after application.

[2] = system: Phaeosphaeria nodorum (Septoria nodorum); test: Phaeosphaeria nodorum (Septoria nodorum) / wheat / leaf disc preventative (glume blotch); assay type: in vivo; conditions: Parastagonospora nodorum, foliar, 120 h, wheat leaf segments cv. Kanzler, inoculated 2 days after application, assessed 5-7 days after application, compared to untreated, read-out: disease control
Method: Phaeosphaeria nodorum (Septoria nodorum)/Wheat/Leaf Disc Preventative (Glume Blotch) Wheat leaf segments cv. Kanzler are placed on agar in a multiwell plate (24-well format) and sprayed with the formulated test compound diluted in water. The leaf disks are inoculated with a spore suspension of the fungus 2 days after application. The inoculated test leaf disks are incubated at 20° C. and 75% rh under a light regime of 12 h light/12 h darkness in a climate cabinet and the activity of a compound is assessed as percent disease control compared to untreated when an appropriate level of disease damage appears in untreated check leaf disks (5-7 days after application).

[3] = system: Mycosphaerella Graminicola (Septoria tritici); test: Mycosphaerella graminicola (Septoria tritici) / liquid culture (Septoria blotch); assay type: cell-based; conditions: Zymoseptoria tritici, PDB potato dextrose broth, 24° C., 4 to 5 days after application, compared to untreated checks, read-out: disease control (inhibition of growth, photometric)
Method: as §1, with “Graminicola (Septoria tritici)/Liquid” for “arachidis (Cercospora arachidicola)/Liquid”, “(Septoria Blotch)” for “(Early Leaf Spot)”, “4 to 5” for “4-5”

[4] = system: Puccinia Recondite f. Sp. Tritici; test: Puccinia recondita f. sp. tritici / wheat / leaf disc preventative (brown rust); assay type: in vivo; conditions: foliar, wheat leaf segments cv. Kanzler, inoculated 1 day after application, assessed 7-9 days after application, compared to untreated, read-out: disease control
Method: Puccinia Recondite f. Sp. Tritici/Wheat/Leaf Disc Preventative (Brown Rust) Wheat leaf segments cv. Kanzler are placed on agar in multiwell plates (24-well format) and sprayed with the formulated test compound diluted in water. The leaf disks are inoculated with a spore suspension of the fungus 1 day after application. The inoculated leaf segments are incubated at 19° C. and 75% rh under a light regime of 12 h light/12 h darkness in a climate cabinet and the activity of a compound is assessed as percent disease control compared to untreated when an appropriate level of disease damage appears in untreated check leaf segments (7-9 days after application).

[5] = system: Magnaporthe grisea (Pyricularia oryzae); test: whole plant or invertebrate; assay type: in vivo; conditions: foliar, read-out: disease control
[6] = system: Monographella nivalis (Microdochium nivale); test: Monographella nivalis (Microdochium nivale) / liquid culture (foot rot cereals); assay type: cell-based; conditions: PDB potato dextrose broth, 24° C., 4-5 days after application, compared to untreated checks, read-out: disease control (inhibition of growth, photometric)
Method: as §1, with “Monographella nivalis (Microdochium nivale)/Liquid” for “Mycosphaerella arachidis (Cercospora arachidicola)/Liquid”, “(Foot Rot Cereals)” for “(Early Leaf Spot)”

[7] = system: Glomerella Lagenarium (Colletotrichum lagenarium); test: Glomerella lagenarium (Colletotrichum lagenarium) / liquid culture (anthracnose); assay type: cell-based; conditions: Colletotrichum orbiculare, PDB potato dextrose broth, 24° C., 3 to 4 days after application, compared to untreated checks, read-out: disease control (inhibition of growth, photometric)
Method: as §1, with “Glomerella Lagenarium (Colletotrichum lagenarium)/Liquid” for “Mycosphaerella arachidis (Cercospora arachidicola)/Liquid”, “(Anthracnose)” for “(Early Leaf Spot)”, “measured” for “determined”, “3 to 4” for “4-5”

COc1ccnc(C(=O)N[C@@H](C)C(=O)ON(C)C(c2ccc(F)cc2)c2ccc(F)cc2)c1OC(C)=O [I.s.13, [bis(4-fluorophenyl)methyl-methyl-amino] (2S)-2-[(3-acetoxy-4-methoxy-pyridine-2-carbonyl)amino]propanoate]
≥ 80%: inhibition at 200 ppm [1] | pest or weed control at 200 ppm [2] | inhibition at 200 ppm [3] | pest or weed control at 200 ppm [4]

COc1ccnc(C(=O)N[C@@H](C)C(=O)ON(C)C(c2ccccc2)c2ccc(F)cc2)c1O (stereo partly drawn) [I.n.01, [[(4-fluorophenyl)-phenyl-methyl]-methyl-amino] (2S)-2-[(3-hydroxy-4-methoxy-pyridine-2-carbonyl)amino]propanoate]
≥ 80%: pest or weed control at 200 ppm [5] | inhibition at 200 ppm [1] | inhibition at 200 ppm [6] | inhibition at 200 ppm [7] | pest or weed control at 200 ppm [2] | inhibition at 200 ppm [3] | pest or weed control at 200 ppm [4]

COc1ccnc(C(=O)N[C@@H](C)C(=O)ON(C)C(c2ccc(Cl)cc2)c2ccc(Cl)cc2)c1O [I.u.01, [bis(4-chlorophenyl)methyl-methyl-amino] (2S)-2-[(3-hydroxy-4-methoxy-pyridine-2-carbonyl)amino] propanoate]
≥ 80%: pest or weed control at 200 ppm [5] | inhibition at 200 ppm [1] | inhibition at 200 ppm [7] | pest or weed control at 200 ppm [2] | inhibition at 200 ppm [3] | pest or weed control at 200 ppm [4]

COc1ccnc(C(=O)N[C@@H](C)C(=O)ON(C)C(C)(c2ccc(F)cc2)c2ccc(Cl)cc2)c1O (stereo partly drawn) [I.t.02, [[1-(4-chlorophenyl)-1-(4-fluorophenyl)ethyl]-methyl-amino] (2S)-2-[(3-hydroxy-4-methoxy-pyridine-2-carbonyl)amino]propanoate]
≥ 80%: inhibition at 200 ppm [1] | inhibition at 200 ppm [6] | inhibition at 200 ppm [7] | inhibition at 200 ppm [3] | pest or weed control at 200 ppm [4]

COc1ccnc(C(=O)N[C@@H](C)C(=O)ON(C)C(c2ccccc2)c2ccc3ccccc3c2)c1O (stereo partly drawn) [I.r.01, [methyl-[2-naphthyl(phenyl)methyl]amino] (2S)-2-[(3-hydroxy-4-methoxy-pyridine-2-carbonyl)amino] propanoate]
≥ 80%: pest or weed control at 200 ppm [2]

COc1ccnc(C(=O)N[C@@H](C)C(=O)ON(C)C(c2ccccc2)c2ccc(Cl)cc2)c1O (stereo partly drawn) [I.o.01, [[(4-chlorophenyl)-phenyl-methyl]-methyl-amino] (2S)-2-[(3-hydroxy-4-methoxy-pyridine-2-carbonyl)amino]propanoate]
≥ 80%: inhibition at 200 ppm [1] | inhibition at 200 ppm [7] | pest or weed control at 200 ppm [2] | inhibition at 200 ppm [3] | pest or weed control at 200 ppm [4]

COc1ccnc(C(=O)N[C@@H](C)C(=O)ON(C)C(c2ccc(C(C)(C)C)cc2)c2ccc(C(C)(C)C)cc2)c1O [I.aa.01, [bis(4-tert-butylphenyl)methyl-methyl-amino] (2S)-2-[(3-hydroxy-4-methoxy-pyridine-2-carbonyl)amino]propanoate]
≥ 80%: inhibition at 200 ppm [6] | inhibition at 200 ppm [3]

CCC(c1ccc(Cl)cc1)(c1ccc(Cl)cc1)N(C)OC(=O)[C@H](C)NC(=O)c1nccc(OC)c1O [I.u.03, [1,1-bis(4-chlorophenyl)propyl-methyl-amino] (2S)-2-[(3-hydroxy-4-methoxy-pyridine-2-carbonyl)amino]propanoate]
≥ 80%: inhibition at 200 ppm [1] | inhibition at 200 ppm [6] | inhibition at 200 ppm [3]

COc1ccnc(C(=O)N[C@@H](C)C(=O)ON(C)C(c2ccccc2)C2CC2)c1O (stereo partly drawn) [I.e.01, [[cyclopropyl(phenyl)methyl]-methyl-amino] (2S)-2-[(3-hydroxy-4-methoxy-pyridine-2-carbonyl)amino] propanoate]
≥ 80%: pest or weed control at 200 ppm [2] | inhibition at 200 ppm [3]

COc1ccnc(C(=O)N[C@@H](C)C(=O)ON(C)C(c2ccccc2)C2CCCCC2)c1O (stereo partly drawn) [I.j.01, [[cyclohexyl(phenyl)methyl]-methyl-amino] (2S)-2-[(3-hydroxy-4-methoxy-pyridine-2-carbonyl)amino] propanoate]
≥ 80%: pest or weed control at 200 ppm [2]

COc1ccnc(C(=O)N[C@@H](C)C(=O)ON(C)C(c2cc(C)cc(C)c2)c2cc(C)cc(C)c2)c1O [I.x.01, [bis(3,5-dimethylphenyl)methyl-methyl-amino] (2S)-2-[(3-hydroxy-4-methoxy-pyridine-2-carbonyl)amino]propanoate]
≥ 80%: inhibition at 200 ppm [6] | inhibition at 200 ppm [7] | inhibition at 200 ppm [3]

COc1ccnc(C(=O)N[C@@H](C)C(=O)ON(C)C(c2ccc3ccccc3c2)C2CC2)c1O (stereo partly drawn) [I.g.01, [[cyclopropyl(2-naphthyl)methyl]-methyl-amino] (2S)-2-[(3-hydroxy-4-methoxy-pyridine-2-carbonyl)amino] propanoate]
≥ 80%: pest or weed control at 200 ppm [2]

COc1ccnc(C(=O)N[C@@H](C)C(=O)ON(C)C(C)(c2ccccc2)c2ccccc2)c1O [I.m.02, [1,1-diphenylethyl (methyl)amino] (2S)-2-[(3-hydroxy-4-methoxy-pyridine-2-carbonyl)amino] propanoate]
≥ 80%: pest or weed control at 200 ppm [5] | inhibition at 200 ppm [1] | pest or weed control at 200 ppm [2] | inhibition at 200 ppm [3] | pest or weed control at 200 ppm [4]

COc1ccnc(C(=O)N[C@@H](C)C(=O)ON(C)C(c2ccccc2)C2CCCC2)c1O (stereo partly drawn) [I.h.01, [[cyclopentyl(phenyl)methyl]-methyl-amino] (2S)-2-[(3-hydroxy-4-methoxy-pyridine-2-carbonyl)amino] propanoate]
≥ 80%: pest or weed control at 200 ppm [5] | inhibition at 200 ppm [1] | inhibition at 200 ppm [7] | pest or weed control at 200 ppm [2] | inhibition at 200 ppm [3] | pest or weed control at 200 ppm [4]

COc1ccnc(C(=O)N[C@@H](C)C(=O)ON(C)C(c2ccccc2)C(C)C)c1O (stereo partly drawn) [I.d.01, [methyl-(2-methyl-1-phenyl-propyl)amino] (2S)-2-[(3-hydroxy-4-methoxy-pyridine-2-carbonyl)amino] propanoate]
≥ 80%: inhibition at 200 ppm [1] | inhibition at 200 ppm [3] | pest or weed control at 200 ppm [4]

COc1ccnc(C(=O)N[C@@H](C)C(=O)ON(C)C(c2ccc(F)cc2)c2ccc(F)cc2)c1O [I.s.01, [bis(4-fluorophenyl)methyl-methyl-amino] (2S)-2-[(3-hydroxy-4-methoxy-pyridine-2-carbonyl)amino]propanoate]
≥ 80%: pest or weed control at 200 ppm [5] | inhibition at 200 ppm [1] | inhibition at 200 ppm [6] | inhibition at 200 ppm [7] | pest or weed control at 200 ppm [2] | inhibition at 200 ppm [3] | pest or weed control at 200 ppm [4]

COc1ccnc(C(=O)N[C@@H](C)C(=O)ON(C)C(C)(c2ccc(F)cc2)c2ccc(F)cc2)c1OC(C)=O [I.s.14, [1,1-bis(4-fluorophenyl)ethyl-methyl-amino] (2S)-2-[(3-acetoxy-4-methoxy-pyridine-2-carbonyl)amino] propanoate]
≥ 80%: pest or weed control at 200 ppm [5] | inhibition at 200 ppm [1] | pest or weed control at 200 ppm [2] | inhibition at 200 ppm [3]
